From patent US10906905B2, “Five-membered heteroaryl ring bridged ring derivative, preparation method therefor and medical use thereof” (Jiangsu Hengrui Medicine Co., Ltd., priority 2016, dated 2021)

Assays:
[1] = target: recombinant human VEGFR2 enzyme (Homo sapiens (Human), UniProt P35968); assay: Inhibition of VEGFR2 kinase activity (Z'-LYTE Kinase Assay Kit); format: biochemical; conditions: ATP 50 μM; read-out: IC50 of inhibition effect on VEGFR2 kinase activity
Method: The inhibition effect of VEGFR2 kinase activity in vitro was determined by the following method.
The inhibition effect of the compounds of the present invention on VEGFR2 kinase activity was determined by the following experimental method:
After reaction at 25° C. for 2 hours, 5 μL of detection reagent was added to each well. […] The IC50 values of the compounds for enzyme inhibition were calculated using Graphpad prism software based on each concentration of the compound and the corresponding signal value thereof.

p38α kinase = p38α kinase (Homo sapiens (Human), UniProt Q16539); assay: Inhibition of p38α kinase activity (p38α kinase assay kit, ADP-Glo); format: biochemical; conditions: ATP 50 μM; read-out: IC50 of inhibition effect on p38α kinase activity
Method: The inhibition of p38α kinase activity in vitro was determined by the following method.
The inhibition effect of the compounds of the present invention on p38a kinase activity was determined by the following experimental method:
p38α kinase assay kit (V9591, Promega) was used to assay enzyme activity. 2 μl of enzyme solution (the final concentration of enzyme in the reaction system was 0.5 ng/μL) formulated with reaction buffer (40 mM Tris pH 7.5, 20 mM MgCl2, 0.1 mg/ml BSA), 1 μl of a 3-fold gradient dilution of the compounds dissolved in 5% DMSO, and 2 μl of a mixed solution of ATP and p38 substrate peptide (the final concentration of ATP was 50 μM, and the final concentration of substrate was 0.2 μg/μL) were added successively to a 384-well plate (4514, Corning). After reaction at 27° C. for 2.5 hours, 5 μl of ADP-Glo solution in the kit was added to each well, then the plate was placed at 27° C. for 40 minutes. 10 μl of kinase assay reagent was then added to each well, then the plate was placed at 27° C. for 30 minutes. The chemiluminescence signal values were measured with a Victor 3 (PerkinElmer) multi-function microplate reader. The IC50 values of the compounds on enzyme inhibition were calculated using Graphpad prism software based on each concentration of the compound and the corresponding signal value thereof.

[2] = test system: Smad signaling pathway of TGFβRI; assay: Inhibition of Smad signaling pathway of TGFβRI (3TP-lux luciferase reporter in HepG2 cell); format: cell-based; conditions: Homo sapiens; HepG2 cell, 3TP-lux plasmid, 18 hours; read-out: IC50 on the inhibition of Smad signaling pathway of TGFβRI
[3] = Pharmacokinetics assay in rats after intragastrical administration; format: in vivo; conditions: both sexes, Sprague-Dawley, rat, plasma, po, SD rats, 2 mg/kg; for Vd/F: read-out: Apparent distribution volume Vz/F; for AUC: read-out: Area under curve AUC; for CL/F: read-out: Clearance CLz/F; for half-life: read-out: Half-life T1/2 (converted); for Cmax: read-out: Plasma concentration Cmax; for MRT: read-out: Residence time MRT
Method: Rats were used as test animals. The drug concentration in plasma at different time points was determined by LC/MS/MS method after intragastrical administration of the compounds of Examples 1-1, 1-2, 2-1, 3-1, the compound with retention time of 6.631 minutes among Examples 9-1 and 9-2, and the compounds of Examples 33 and 39-1 to rats. The pharmacokinetic behavior of the compounds of the present invention was studied and evaluated in rats.
Compounds of Examples 1-1, 1-2, 2-1, 3-1, compound with retention time of 6.631 minutes among Examples 9-1 and 9-2, and compounds of Examples 33 and 39-1.
Twenty-eight healthy adult Sprague-Dawley (SD) rats (half male and half female) were purchased from SINO-BRITISH SIPPR/BK LAB. ANIMAL LTD., CO, with Certificate No.: SCXK (Shanghai) 2008-0016, and equally divided into 7 groups (4 rats per group).
A certain amount of the test compound was weighed, and added with 5% by volume of DMSO, 5% by volume of Tween 80, and 90% by volume of physiological saline were added to prepare a 0.2 mg/mL colorless, clear and transparent solution.
After an overnight fast, SD rats were administered intragastrically the test compounds at an administration dosage of 2.0 mg/kg and an administration volume of 10.0 mL/kg.
The rats were intragastrically administered the compounds of Examples 1-1, 1-2, 2-1, 3-1, the compound with retention time of 6.631 minutes among Examples 9-1 and 9-2, and the compounds of Examples 33 and 39-1.0.2 mL of blood was taken from the orbital sinus before administration and at 0.5, 1.0, 2.0, 4.0, 6.0, 8.0, 11.0 and 24.0 hours after administration. The samples were stored in heparinized tubes, and centrifuged for 10 minutes at 4° C. at 3,500 rpm to separate the blood plasma. The plasma samples were stored at −20° C. The rats were fed 2 hours after administration.
The content of the test compounds in the plasma of rats after intragastrical administration of the test compounds at different concentrations was determined: 25 μL of rat plasma at each time after administration was taken, added with 50 μL (100 ng/mL) of the internal standard solution of camptothecin and 175 μL of acetonitrile, shaken vertically for 5 minutes, and centrifuged for 10 minutes (4000 rpm). 3.0 μL of the supernatant was taken from the plasma samples for LC/MS/MS analysis.

Sequence of p38α kinase (Q16539 whole entry): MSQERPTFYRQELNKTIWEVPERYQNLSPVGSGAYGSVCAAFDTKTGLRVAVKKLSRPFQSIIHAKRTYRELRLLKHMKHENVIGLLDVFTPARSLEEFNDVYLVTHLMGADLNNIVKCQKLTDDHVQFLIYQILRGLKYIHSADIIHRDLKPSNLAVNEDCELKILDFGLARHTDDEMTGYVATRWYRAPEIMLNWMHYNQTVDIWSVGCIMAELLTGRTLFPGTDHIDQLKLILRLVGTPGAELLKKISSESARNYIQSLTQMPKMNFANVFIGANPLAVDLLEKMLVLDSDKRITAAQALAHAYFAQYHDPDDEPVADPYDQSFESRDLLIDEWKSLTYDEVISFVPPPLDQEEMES
Sequence of recombinant human VEGFR2 enzyme (P35968 20-1356): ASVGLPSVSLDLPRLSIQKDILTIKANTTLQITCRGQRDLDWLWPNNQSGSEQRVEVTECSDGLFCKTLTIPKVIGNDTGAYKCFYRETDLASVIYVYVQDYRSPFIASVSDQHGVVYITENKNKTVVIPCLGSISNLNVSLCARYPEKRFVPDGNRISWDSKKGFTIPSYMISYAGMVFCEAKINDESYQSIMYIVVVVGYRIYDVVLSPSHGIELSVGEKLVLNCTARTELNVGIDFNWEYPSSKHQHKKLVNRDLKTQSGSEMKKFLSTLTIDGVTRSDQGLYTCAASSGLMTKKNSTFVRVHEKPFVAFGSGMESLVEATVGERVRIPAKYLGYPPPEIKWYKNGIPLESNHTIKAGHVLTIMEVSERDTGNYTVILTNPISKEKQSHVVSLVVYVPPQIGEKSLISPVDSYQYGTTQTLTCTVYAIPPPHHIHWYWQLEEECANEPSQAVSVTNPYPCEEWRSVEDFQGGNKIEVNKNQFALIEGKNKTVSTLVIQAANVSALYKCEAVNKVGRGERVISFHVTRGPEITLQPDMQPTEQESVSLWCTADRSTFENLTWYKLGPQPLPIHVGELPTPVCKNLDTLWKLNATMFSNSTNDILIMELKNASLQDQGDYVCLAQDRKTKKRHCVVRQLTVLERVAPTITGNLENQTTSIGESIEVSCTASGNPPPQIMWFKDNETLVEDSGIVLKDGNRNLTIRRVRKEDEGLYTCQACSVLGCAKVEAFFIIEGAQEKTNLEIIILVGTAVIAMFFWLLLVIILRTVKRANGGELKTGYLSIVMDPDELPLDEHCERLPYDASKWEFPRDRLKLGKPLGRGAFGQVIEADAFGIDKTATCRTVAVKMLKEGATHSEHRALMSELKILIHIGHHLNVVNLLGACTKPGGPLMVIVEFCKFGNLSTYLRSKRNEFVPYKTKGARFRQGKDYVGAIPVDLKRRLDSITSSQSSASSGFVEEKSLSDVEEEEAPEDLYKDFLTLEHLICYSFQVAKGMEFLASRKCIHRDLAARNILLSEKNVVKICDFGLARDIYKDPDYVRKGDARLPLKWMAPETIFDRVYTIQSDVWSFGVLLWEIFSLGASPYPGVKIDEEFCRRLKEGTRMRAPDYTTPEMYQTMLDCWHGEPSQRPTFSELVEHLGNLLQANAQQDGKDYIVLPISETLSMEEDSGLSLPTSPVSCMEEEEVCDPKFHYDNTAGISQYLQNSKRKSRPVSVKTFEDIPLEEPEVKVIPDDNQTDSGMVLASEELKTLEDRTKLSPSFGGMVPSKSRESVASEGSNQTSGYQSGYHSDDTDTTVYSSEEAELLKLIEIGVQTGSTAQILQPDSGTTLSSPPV

IC50 [1] | IC50 (p38α kinase) | IC50 [2] | Vd/F [3] | AUC [3] | CL/F [3] | half-life [3] | Cmax [3] | MRT [3] | SMILES
3050 nM | 618 nM | 36 nM | 23.5 ± 19.4 L/kg | 637 ± 355 ng·h/mL | 68.6 ± 39.2 mL/min/kg | 3.42 ± 1.29 h | 208 ± 61 ng/mL | 3.88 ± 0.26 h | Cc1cccc(-c2nc3n(c2-c2ccc4nccc(C(N)=O)c4c2)[C@H]2CC[C@@H]3C2)n1 [Example 1-1, 6-((5S,8R)-2-(6-Methylpyridin-2-yl)-5,6,7,8-tetrahydro-5,8-methanoimidazo[1,2-a]pyridin-3-yl)quinoline-4-carboxamide]
1160 nM | 1710 nM | 21 nM | 7.8 ± 1.33 L/kg | 664 ± 93 ng·h/mL | 50.8 ± 7.2 mL/min/kg | 1.77 ± 0.2 h | 351 ± 52 ng/mL | 2.3 ± 0.37 h | Cc1cccc(-c2nc3n(c2-c2ccc4nnc(C(N)=O)n4c2)[C@H]2CC[C@@H]3C2)n1 [Example 2-1, 6-((5S,8R)-2-(6-Methylpyridin-2-yl)-5,6,7,8-tetrahydro-5,8-methanoimidazo[1,2-a]pyridin-3-yl)[1,2,4]triazolo[4,3-a]pyridine-3-carboxamide]
2890 nM | 686 nM | 19 nM | 3.3 ± 1.1 L/kg | 800 ± 208 ng·h/mL | 43.4 ± 10.4 mL/min/kg | 0.868 ± 0.1 h | 502 ± 128 ng/mL | 1.43 ± 0.06 h | Cc1cccc(-c2nc3n(c2-c2ccnc(-c4ccc(S(C)(=O)=O)cc4)c2)[C@H]2CC[C@@H]3C2)n1 [Example 3-1, (5S,8R)-2-(6-Methylpyridin-2-yl)-3-(2-(4-(methylsulfonyl)phenyl)pyridin-4-yl)-5,6,7,8-tetrahydro-5,8-methanoimidazo[1,2-a]pyridine]
6300 nM | 4730 nM | 24 nM | 18.3 ± 17.4 L/kg | 689 ± 609 ng·h/mL | 121 ± 116 mL/min/kg | 2.06 ± 0.86 h | 317 ± 269 ng/mL | 2.44 ± 1.16 h | NC(=O)c1ccnc2ccc(-c3c(-c4ccc(F)cn4)nc4n3[C@H]3CC[C@@H]4C3)cc12 [Example 39-1, 6-((5S,8R)-2-(5-Fluoropyridin-2-yl)-5,6,7,8-tetrahydro-5,8-methanoimidazo[1,2-a]pyridin-3-yl)quinoline-4-carboxamide]
